Test results reported in ChEMBL document CHEMBL1201862, “PubChem BioAssay data set” (2004).
The source made the active and inactive calls.

Experiments:
Caspase-3 = target: T1, Caspase-3 (Homo sapiens, UniProt P42574); test: human caspase-3 protease activity blockade – biochemical, fluorescence, cherry-picked samples, selectivity assay for caspase-6 allosteric inhibitor project, dose response (AID 743291)
T1 sequence (P42574 whole entry): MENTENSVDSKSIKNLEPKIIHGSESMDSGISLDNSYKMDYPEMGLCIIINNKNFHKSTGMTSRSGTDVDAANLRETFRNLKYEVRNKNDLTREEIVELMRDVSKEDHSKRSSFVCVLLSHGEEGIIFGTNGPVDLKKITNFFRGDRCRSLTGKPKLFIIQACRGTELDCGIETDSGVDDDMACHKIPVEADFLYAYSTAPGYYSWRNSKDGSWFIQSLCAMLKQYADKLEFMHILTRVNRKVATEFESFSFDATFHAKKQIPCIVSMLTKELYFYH

BJ = test: growth inhibition of engineered Ras-driven BJ cells – cell-based, alamar blue fluorescence, cherrypicked samples, dose response (AID 2631); type: functional; conditions: Homo sapiens;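 note: confirmatory dose-response assay in RAS-dependent BJ fibroblasts engineered with TERT, LT and ST, with cytotoxicity read by fluorescence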
[1] = HepG2 cell cytotoxicity, dose response, cytotoxicity control for non-replicating M. tuberculosis project (AID 489018); type: functional; conditions: Mycobacterium tuberculosis
Insulin-degrading enzyme = target: T2, Insulin-degrading enzyme (Homo sapiens, UniProt P14735); test: cellular IDE activation of Abeta substrate cleavage – fluorescence polarization, HEK cells, dose response (AID 588439); type: functional, cell-based
T2 sequence (P14735 whole entry): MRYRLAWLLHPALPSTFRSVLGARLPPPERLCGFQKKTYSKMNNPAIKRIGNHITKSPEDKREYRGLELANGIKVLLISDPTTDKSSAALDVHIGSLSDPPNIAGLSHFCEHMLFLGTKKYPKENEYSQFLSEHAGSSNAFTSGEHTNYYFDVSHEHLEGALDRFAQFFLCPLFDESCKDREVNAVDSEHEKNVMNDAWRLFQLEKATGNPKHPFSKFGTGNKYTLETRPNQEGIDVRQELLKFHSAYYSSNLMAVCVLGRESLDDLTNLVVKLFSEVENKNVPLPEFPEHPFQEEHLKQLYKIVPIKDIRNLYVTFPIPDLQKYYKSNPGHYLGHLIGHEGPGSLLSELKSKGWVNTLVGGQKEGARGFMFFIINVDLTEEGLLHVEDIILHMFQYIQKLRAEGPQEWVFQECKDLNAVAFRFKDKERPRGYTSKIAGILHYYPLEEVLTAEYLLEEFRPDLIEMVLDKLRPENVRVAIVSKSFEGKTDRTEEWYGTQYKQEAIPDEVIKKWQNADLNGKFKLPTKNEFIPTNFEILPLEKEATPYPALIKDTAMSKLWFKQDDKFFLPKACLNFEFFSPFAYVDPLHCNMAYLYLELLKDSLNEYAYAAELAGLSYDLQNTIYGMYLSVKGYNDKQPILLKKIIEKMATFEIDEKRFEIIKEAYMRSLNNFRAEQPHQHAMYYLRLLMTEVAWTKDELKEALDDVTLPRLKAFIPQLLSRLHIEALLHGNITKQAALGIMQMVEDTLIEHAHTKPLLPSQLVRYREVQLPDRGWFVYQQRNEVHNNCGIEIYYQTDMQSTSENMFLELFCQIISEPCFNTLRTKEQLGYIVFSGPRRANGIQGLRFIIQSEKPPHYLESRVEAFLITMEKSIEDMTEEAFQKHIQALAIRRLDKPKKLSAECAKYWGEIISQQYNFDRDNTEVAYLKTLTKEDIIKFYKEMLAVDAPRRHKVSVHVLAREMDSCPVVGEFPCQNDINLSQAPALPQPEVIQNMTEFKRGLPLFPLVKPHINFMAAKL

[2] = target: T3, Ubiquitin-conjugating enzyme E2 N (Homo sapiens, UniProt P61088); type: functional;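 note: Dose-response confirmation in a TR-FRET assay detecting UBC13-driven polyubiquitin chain formation, inhibition measured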
T3 sequence (P61088 whole entry): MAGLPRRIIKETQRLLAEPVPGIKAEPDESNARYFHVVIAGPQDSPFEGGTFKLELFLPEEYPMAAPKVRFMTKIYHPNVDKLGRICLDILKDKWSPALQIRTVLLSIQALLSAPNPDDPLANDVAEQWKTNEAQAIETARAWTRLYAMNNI

[3] = NIH-3T3 fibroblast cytotoxicity, dose response, cytotoxicity control, cell-based, fluorescence, Alamar Blue, secondary assay (AID 2327); type: functional;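 note: NIH-3T3 mouse fibroblasts cultured with fluconazole at 8 µg/mL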
[4] = target: STE20-like serine/threonine-protein kinase (Homo sapiens, UniProt Q9H2G2); type: functional
STE20-like serine/threonine-protein kinase, sequence (Q9H2G2 whole entry): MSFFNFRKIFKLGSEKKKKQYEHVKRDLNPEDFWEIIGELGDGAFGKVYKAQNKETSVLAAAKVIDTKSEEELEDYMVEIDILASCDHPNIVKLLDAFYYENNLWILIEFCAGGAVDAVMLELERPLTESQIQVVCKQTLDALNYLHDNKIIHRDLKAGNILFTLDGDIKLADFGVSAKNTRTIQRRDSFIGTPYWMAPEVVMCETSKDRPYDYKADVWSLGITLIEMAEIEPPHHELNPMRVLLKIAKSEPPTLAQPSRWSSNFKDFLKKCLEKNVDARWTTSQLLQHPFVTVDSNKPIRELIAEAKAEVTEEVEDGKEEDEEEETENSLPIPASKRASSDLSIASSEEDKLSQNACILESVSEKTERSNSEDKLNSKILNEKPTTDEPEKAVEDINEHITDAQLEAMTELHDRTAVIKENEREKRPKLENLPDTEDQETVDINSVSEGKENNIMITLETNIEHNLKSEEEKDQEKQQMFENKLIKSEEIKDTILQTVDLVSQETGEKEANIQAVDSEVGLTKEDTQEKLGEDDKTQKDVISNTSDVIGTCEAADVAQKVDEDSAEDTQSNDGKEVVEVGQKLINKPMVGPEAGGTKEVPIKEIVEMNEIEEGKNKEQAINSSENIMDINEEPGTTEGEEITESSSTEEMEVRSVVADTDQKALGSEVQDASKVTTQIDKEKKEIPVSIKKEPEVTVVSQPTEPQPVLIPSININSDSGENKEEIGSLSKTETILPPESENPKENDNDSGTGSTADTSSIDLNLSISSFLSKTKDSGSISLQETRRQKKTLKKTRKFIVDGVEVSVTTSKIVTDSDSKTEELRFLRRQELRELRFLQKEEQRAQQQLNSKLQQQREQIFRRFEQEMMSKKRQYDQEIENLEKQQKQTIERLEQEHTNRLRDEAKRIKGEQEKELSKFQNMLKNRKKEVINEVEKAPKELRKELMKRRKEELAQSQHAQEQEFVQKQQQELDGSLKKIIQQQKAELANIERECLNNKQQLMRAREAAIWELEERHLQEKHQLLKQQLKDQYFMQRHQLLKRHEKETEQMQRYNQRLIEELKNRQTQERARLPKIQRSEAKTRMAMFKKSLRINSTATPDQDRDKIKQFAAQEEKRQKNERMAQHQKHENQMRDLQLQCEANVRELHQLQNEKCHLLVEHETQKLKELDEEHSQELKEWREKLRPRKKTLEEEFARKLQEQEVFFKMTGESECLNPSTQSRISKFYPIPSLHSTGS

[5] = target: 5'-AMP-activated protein kinase catalytic subunit alpha-1 (Homo sapiens, UniProt Q13131); type: functional
[6] = target: Testis-specific serine/threonine-protein kinase 1 (Homo sapiens, UniProt Q9BXA7); type: functional
[7] = target: Phosphorylase b kinase gamma catalytic chain, liver/testis isoform (Homo sapiens, UniProt P15735); type: functional;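 note: PHKG2 measured as one member of a kinome-wide kinase panel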
[8] = target: Eukaryotic elongation factor 2 kinase (Homo sapiens, UniProt O00418); type: functional
[9] = target: Serine/threonine-protein kinase Chk2 (Homo sapiens, UniProt O96017); type: functional;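 note: CHEK2 entry within a kinome-wide screening panel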
Serine/threonine-protein kinase Chk2, sequence (O96017 whole entry): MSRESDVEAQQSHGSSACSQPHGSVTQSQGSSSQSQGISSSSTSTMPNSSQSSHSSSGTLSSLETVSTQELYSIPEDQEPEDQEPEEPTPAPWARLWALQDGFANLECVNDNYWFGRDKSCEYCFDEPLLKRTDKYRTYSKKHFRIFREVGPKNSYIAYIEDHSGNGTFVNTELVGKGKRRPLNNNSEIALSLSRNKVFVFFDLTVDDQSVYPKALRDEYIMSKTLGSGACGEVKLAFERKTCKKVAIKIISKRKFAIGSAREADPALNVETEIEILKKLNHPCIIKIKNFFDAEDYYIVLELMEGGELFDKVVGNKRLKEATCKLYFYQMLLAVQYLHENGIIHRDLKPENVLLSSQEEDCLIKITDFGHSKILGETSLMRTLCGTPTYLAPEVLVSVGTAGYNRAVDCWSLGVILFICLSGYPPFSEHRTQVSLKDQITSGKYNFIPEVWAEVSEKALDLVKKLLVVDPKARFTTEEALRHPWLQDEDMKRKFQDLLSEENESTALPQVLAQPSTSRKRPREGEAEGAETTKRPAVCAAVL

[10] = target: MAP/microtubule affinity-regulating kinase 3 (Homo sapiens, UniProt P27448); type: functional;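 note: MARK3 affinity measured as one member of a kinome panel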
[11] = target: Protein-tyrosine kinase 6 (Homo sapiens, UniProt Q13882); type: functional
Protein-tyrosine kinase 6, sequence (Q13882 whole entry): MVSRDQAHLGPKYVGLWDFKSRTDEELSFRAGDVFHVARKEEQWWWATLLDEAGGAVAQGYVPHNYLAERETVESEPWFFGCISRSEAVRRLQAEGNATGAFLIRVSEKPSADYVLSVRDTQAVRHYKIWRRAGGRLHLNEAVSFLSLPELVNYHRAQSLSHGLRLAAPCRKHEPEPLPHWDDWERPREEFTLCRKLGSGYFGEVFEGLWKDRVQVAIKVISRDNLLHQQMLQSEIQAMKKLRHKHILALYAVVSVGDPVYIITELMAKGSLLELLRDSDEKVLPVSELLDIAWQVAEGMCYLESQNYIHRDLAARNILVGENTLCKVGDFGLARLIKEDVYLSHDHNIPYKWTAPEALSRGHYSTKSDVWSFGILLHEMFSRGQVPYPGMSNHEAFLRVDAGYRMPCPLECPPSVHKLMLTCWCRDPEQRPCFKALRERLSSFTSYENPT

[12] = target: Serine/threonine-protein kinase D3 (Homo sapiens, UniProt O94806); type: functional;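 note: determined within a kinase panel screen, with PRKCN as the panel member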
[13] = target: Macrophage colony-stimulating factor 1 receptor (Homo sapiens, UniProt P07333); type: functional;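 note: value comes from the Navigating the Kinome screening panel, CSF1R member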
[14] = target: Dual specificity tyrosine-phosphorylation-regulated kinase 3 (Homo sapiens, UniProt O43781); type: functional;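 note: measured as one member of a broad kinase panel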
Ephrin type-A receptor 2 = Ephrin type-A receptor 2 (Homo sapiens, UniProt P29317); type: functional;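 note: EPHA2 tested as one member of a kinome-wide kinase panel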
[15] = target: Death-associated protein kinase 3 (Homo sapiens, UniProt O43293); type: functional;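 note: measured as one member of a kinome-wide profiling panel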
[16] = target: Vascular endothelial growth factor receptor 3 (Homo sapiens, UniProt P35916); type: functional;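 note: value from a kinome-wide profiling panel, with FLT4 as the panel member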
Vascular endothelial growth factor receptor 3, sequence (P35916 whole entry): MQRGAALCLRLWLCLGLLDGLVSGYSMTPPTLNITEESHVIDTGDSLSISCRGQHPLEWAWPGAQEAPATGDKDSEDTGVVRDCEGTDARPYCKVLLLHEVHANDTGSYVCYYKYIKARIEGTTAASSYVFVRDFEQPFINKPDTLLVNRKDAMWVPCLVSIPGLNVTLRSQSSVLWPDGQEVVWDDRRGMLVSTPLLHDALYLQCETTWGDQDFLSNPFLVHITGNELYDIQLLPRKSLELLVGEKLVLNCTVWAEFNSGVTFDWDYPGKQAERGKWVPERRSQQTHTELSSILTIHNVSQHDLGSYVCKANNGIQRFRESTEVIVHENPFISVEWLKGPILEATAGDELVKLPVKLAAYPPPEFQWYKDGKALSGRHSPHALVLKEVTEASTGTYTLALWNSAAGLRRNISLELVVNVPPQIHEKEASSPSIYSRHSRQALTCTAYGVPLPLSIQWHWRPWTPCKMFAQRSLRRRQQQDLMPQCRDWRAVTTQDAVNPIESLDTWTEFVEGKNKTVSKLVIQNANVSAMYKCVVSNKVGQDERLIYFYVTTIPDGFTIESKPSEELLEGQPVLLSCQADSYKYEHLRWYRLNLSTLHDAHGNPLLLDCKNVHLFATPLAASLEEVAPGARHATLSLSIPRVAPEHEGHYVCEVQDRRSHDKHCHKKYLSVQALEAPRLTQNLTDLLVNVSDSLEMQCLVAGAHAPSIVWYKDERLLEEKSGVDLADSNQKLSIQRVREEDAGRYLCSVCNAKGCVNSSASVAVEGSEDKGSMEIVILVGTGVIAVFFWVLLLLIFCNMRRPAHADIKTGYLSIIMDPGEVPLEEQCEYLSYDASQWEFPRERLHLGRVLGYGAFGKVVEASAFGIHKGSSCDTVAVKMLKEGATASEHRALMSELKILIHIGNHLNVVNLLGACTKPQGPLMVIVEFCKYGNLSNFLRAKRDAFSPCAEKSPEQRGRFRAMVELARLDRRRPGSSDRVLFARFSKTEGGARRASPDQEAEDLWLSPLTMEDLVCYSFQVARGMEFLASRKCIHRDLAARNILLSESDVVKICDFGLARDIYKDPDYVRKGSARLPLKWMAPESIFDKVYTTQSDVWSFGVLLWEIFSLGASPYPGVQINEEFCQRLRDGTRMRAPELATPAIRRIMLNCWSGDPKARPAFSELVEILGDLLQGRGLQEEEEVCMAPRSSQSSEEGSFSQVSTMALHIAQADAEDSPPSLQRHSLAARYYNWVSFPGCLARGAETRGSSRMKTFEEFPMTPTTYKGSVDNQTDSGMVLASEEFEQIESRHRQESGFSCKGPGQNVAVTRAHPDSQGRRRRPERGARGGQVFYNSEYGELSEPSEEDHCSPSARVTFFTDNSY

[17] = target: Homeodomain-interacting protein kinase 2 (Homo sapiens, UniProt Q9H2X6); type: functional;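 note: measured within a kinome-wide kinase profiling panel, HIPK2 being one panel member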
Homeodomain-interacting protein kinase 2, sequence (Q9H2X6 whole entry): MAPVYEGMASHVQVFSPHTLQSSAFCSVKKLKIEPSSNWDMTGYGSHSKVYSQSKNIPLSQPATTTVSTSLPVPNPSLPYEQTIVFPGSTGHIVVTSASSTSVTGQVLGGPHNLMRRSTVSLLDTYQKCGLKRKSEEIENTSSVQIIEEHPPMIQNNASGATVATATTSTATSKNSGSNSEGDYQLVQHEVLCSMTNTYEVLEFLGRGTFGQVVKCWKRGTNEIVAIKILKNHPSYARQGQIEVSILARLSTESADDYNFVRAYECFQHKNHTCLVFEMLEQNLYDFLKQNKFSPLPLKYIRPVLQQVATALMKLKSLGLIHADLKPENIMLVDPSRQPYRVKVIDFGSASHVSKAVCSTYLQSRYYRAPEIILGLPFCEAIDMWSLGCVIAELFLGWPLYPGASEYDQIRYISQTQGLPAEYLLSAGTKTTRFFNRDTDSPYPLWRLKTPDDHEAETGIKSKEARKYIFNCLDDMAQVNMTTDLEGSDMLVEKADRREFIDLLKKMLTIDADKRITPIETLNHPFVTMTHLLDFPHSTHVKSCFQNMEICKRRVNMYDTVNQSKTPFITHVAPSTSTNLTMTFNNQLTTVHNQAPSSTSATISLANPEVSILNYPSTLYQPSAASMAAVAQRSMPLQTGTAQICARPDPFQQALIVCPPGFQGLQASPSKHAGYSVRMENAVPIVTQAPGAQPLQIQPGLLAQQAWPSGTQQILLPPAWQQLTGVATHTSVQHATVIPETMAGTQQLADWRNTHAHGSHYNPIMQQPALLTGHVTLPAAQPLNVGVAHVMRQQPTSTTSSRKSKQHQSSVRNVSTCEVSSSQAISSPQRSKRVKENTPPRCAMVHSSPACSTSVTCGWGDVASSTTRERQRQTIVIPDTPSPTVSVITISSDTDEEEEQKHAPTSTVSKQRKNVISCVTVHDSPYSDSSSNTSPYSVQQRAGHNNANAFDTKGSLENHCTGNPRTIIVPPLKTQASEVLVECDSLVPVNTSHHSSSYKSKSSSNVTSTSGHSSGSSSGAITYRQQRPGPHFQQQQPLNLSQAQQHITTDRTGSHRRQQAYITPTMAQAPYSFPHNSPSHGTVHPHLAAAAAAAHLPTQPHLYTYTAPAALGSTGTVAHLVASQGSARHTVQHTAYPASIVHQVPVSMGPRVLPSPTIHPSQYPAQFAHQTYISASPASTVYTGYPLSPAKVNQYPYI

[18] = target: Testis-specific serine/threonine-protein kinase 2 (Homo sapiens, UniProt Q96PF2); type: functional;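 note: part of the Navigating the Kinome panel, target entry STK22B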
[19] = target: Serine/threonine-protein kinase Nek4 (Homo sapiens, UniProt P51957); type: functional
[20] = target: Fibroblast growth factor receptor 1 (Homo sapiens, UniProt P11362); type: functional

O=[N+]([O-])c1c(Nc2ccccn2)cc(Cl)c2nonc12
AC50 (Caspase-3): 7.84 µM (active)
EC50 (BJ): 2.43 µM (active)
CC50 [1]: 16.7 µM (active)

CC[C@@H](C)[C@H](CNC)NC[C@@H](Cc1cccc2ccccc12)NCCc1cccc(C(F)(F)F)c1
EC50 (Insulin-degrading enzyme): 6.41 µM (active)
IC50 [2]: > 20 µM (inactive)
EC50 [3]: > 150 µM (inconclusive)

CC(C)(CO)CNc1nccc(-c2c(-c3ccc(F)cc3)nc3c(CC4CC4)nccn23)n1
Ki [4]: > 10 µM (inactive)
Ki [5]: > 6.31 µM (inactive)
Ki [6]: > 1.58 µM (inactive)
Ki [7]: > 5.01 µM (inactive)
Ki [8]: > 3.98 µM (inactive)
Ki [9]: > 5.01 µM (inactive)
Ki [10]: > 6.31 µM (inactive)
Ki [11]: > 2.51 µM (inactive)
Ki [12]: 5.01 µM (active)
Ki [13]: > 2.51 µM (inactive)
Ki [14]: > 6.31 µM (inactive)
Ki (Ephrin type-A receptor 2): > 3.16 µM (inactive)
Ki [15]: > 1.26 µM (inactive)
Ki [16]: > 6.31 µM (inactive)
Ki [17]: > 3.16 µM (inactive)
Ki [18]: > 1.58 µM (inactive)
Ki [19]: > 6.31 µM (inactive)
Ki [20]: > 5.01 µM (inactive)
